Results on three compounds are retold here after patent US20120263848A1, “Organic Compounds” (priority 2009, published 2012).

Entries after “also recorded” stand apart in the source; their conditions may differ.

Format in all cases: in vivo
Test [1] relates to sweet sensitive panelists. Nature of the test: Isointensity measurement in water against sucrose solutions (R-index ranking). As to the method: A 1% solution of N-cycloheptyl-2-methylindoline-1-carboxamide was prepared in ethanol. This 1% solution was then further diluted, using water, to create a 5 ppm sample solution of N-cycloheptyl-2-methylindoline-1-carboxamide. To determine the isointensity of this solution a panel of trained experts was then asked to evaluate the taste (in particularly the sweet taste) of this sample solution in comparison to 0.5%, 1% and 1.5% sample sucrose solutions. Panel testing was carried out in the following way: Twenty milliliters of each of the samples was presented blind and in counter balanced order following a William's Latin square design, to 20 sweet sensitive panelists. In two replications (over 1 session), panelists were asked to taste and rank the solutions from least sweet to most sweet. […] A 1% solution of (R)-N-cyclooctyl-2-methylindoline-1-carboxamide was prepared in ethanol. This 1% solution was then further diluted, using water, to create a 2 ppm sample solution of (R)-N-cyclooctyl-2-methylindoline-1-carboxamide. To determine the isointensity of this solution a panel of trained experts was then asked to evaluate the taste (in particularly the sweet taste) of this sample solution in comparison to 0.5%, 1% and 1.5% sample sucrose solutions. Panel testing was carried out in the following way: Twenty milliliters of each of the samples was presented blind and in counter balanced order following a William's Latin square design, to 20 sweet sensitive panelists. In two replications (over 1 session), panelists were asked to taste and rank the solutions from least sweet to most sweet.

A further test deals with panel of trained experts. Nature of the test: Taste evaluation of diluted sample solutions by a panel of trained experts. The settings on record: for taste of sample solutions (inherent sweetness): 1% ethanol solutions diluted with water to differing ppm concentrations; for effectiveness at creating modifying, or enhancing the sweet flavour of compositions and consumable products: general statement of the applicant. As for the experimental part:
1% solutions of compounds of formula (I) were prepared in ethanol. These 1% solutions were then further diluted, using water, to create sample solutions of differing ppm concentrations. A panel of trained experts was then asked to evaluate the taste of each sample solution and to comment on any inherent sweetness, other perceived taste, or flavor attributes. After tasting each sample the experts rinsed their mouths with water and a break was observed until the stimulus disappeared. […]

Test [2] has as its system sweet sensitive panelists. Briefly: Sweet enhancement in 7% sucrose (aqueous solution, R-index ranking). As for the experimental part: A 1% ethanol solution of (R)-N-cyclooctyl-2-methylindoline-1-carboxamide was added into an aqueous 7% sucrose solution. […] To determine its isointensity a panel of trained experts was then asked to evaluate the taste (in particularly the sweet taste) of this sample solution in comparison to aqueous sample solutions containing 7%, 8%, 9% and 10% sucrose, but without added (R)-N-cyclooctyl-2-methylindoline-1-carboxamide. Panel testing was carried out in the following way: Twenty milliliters of each of the sample solutions was presented blind and in random order to 20 sweet sensitive panelists. In two replications (over 1 session), panelists were asked to rank the solutions from least sweet to most sweet. The data was then subjected to an R-index analysis as described in example 5.

In test [3] the test system is sweet sensitive panelists. Nature of the test: Sweet enhancement in a cola beverage application (7% sucrose cola, R-index ranking). As for the experimental part: A 1% ethanol solution of N-cycloheptyl-2-methylindoline-1-carboxamide was added into a 7% sucrose containing cola solution. […] To determine its isointensity a panel of trained experts was then asked to evaluate the taste (in particularly the sweet taste) of this sample solution in comparison to sample cola solutions containing 7%, 8%, 9% and 10% sucrose but no N-cycloheptyl-2-methylindoline-1-carboxamide. Panel testing was carried out in the following way: Twenty milliliters of each of the sample solutions was presented blind and in random order to 20 sweet sensitive panelists. In two replications (over 1 session), panelists were asked to rank the solutions from least sweet to most sweet. The data was then subjected to an R-index analysis as described in example 15.

Where [4] appears, read: 2 ppm in water vs. 0.5% sucrose solution.
The mark [5] stands for this setting: 2 ppm in water vs. 1.0% sucrose solution.
The mark [6] stands for this setting: 2 ppm in water vs. 1.5% sucrose solution.
Where [7] appears, read: 5 ppm in water vs. 0.5% sucrose solution.
The mark [8] stands for this setting: 5 ppm in water vs. 1.0% sucrose solution.
[9] abbreviates: 5 ppm in water vs. 1.5% sucrose solution.
Where [10] appears, read: 7% sugar cola + 5 ppm vs. 7% sugar.
[11] abbreviates: 7% sugar cola + 5 ppm vs. 8% sugar.
Where [12] appears, read: 7% sugar cola + 5 ppm vs. 9% sugar.
Setting [13] is: 7% sugar cola + 5 ppm vs. 10% sugar.

With `C[C@@H]1Cc2ccccc2N1C(=O)NC1CCCCCCC1` [Example 20, (R)-N-cyclooctyl-2-methylindoline-1-carboxamide], the R-index amounted to 27.00 in test [1] (setting [4]); 72.31 in test [1] (setting [5]); 99.13 in test [1] (setting [6]); 35.53 in test [2] (7% sugar + 2 ppm vs. 7% sugar); 61.44 in test [2] (7% sugar + 2 ppm vs. 8% sugar); 77.09 in test [2] (7% sugar + 2 ppm vs. 9% sugar). In addition, the R-index in test [2] (7% sugar + 2 ppm vs. 10% sugar) was 88.44. Also, the “Significantly different (p < 0.05)” value in test [1] (setting [4]) was “Yes”; in test [1] (setting [5]), “Yes”; in test [1] (setting [6]) it was “Yes”; in test [2] (7% sugar + 2 ppm vs. 7% sugar), “Yes”; in test [2] (7% sugar + 2 ppm vs. 8% sugar), “No”; in test [2] (7% sugar + 2 ppm vs. 9% sugar), “Yes”. Also, the “Significantly different (p < 0.05)” value in test [2] (7% sugar + 2 ppm vs. 10% sugar) is “Yes”. Also, the “Experimental Compound Sweetness” value was “significantly less sweet” in test [1] (setting [5]); “significantly less sweet” in test [1] (setting [6]); “significantly more sweet” in test [2] (7% sugar + 2 ppm vs. 7% sugar); “Iso sweet” in test [2] (7% sugar + 2 ppm vs. 8% sugar); “significantly less sweet” in test [2] (7% sugar + 2 ppm vs. 9% sugar); “significantly less sweet” in test [2] (7% sugar + 2 ppm vs. 10% sugar). In addition, the “taste of sample solutions (inherent sweetness)” value in the test with panel of trained experts was “sweet”. For the same compound, the “effectiveness at creating modifying, or enhancing the sweet flavour of compositions and consumable products” value with panel of trained experts is “particularly effective”. In test [2] (2 ppm in 7% sucrose, iso sweet with 8% sucrose, expected less sweet than 8%), the sweetness enhancer behaviour entry is reported as “behaving as a sweetness enhancer”.
For the compound `CC1Cc2ccccc2N1C(=O)NC1CCCCCC1` (centres unmarked) [Example 2, N-cycloheptyl-2-methylindoline-1-carboxamide], the “Experimental Compound Sweetness” value in test [1] (setting [7]) is given as “Iso-sweet; also recorded: iso sweet”; in test [1] (setting [8]), “significantly less sweet”; in test [1] (setting [9]), “significantly less sweet”; in test [3] (setting [10]) it was “significantly more sweet”; in test [3] (setting [11]) it was “Iso sweet”; in test [3] (setting [12]) it was “significantly less sweet”. For the same compound, in test [3] (setting [13]), the “Experimental Compound Sweetness” value is on record as “significantly less sweet”. Further, the R-index is listed as 39.38 in test [1] (setting [7]); 78.63 in test [1] (setting [8]); 92.00 in test [1] (setting [9]); 37.72 in test [3] (setting [10]); 40.03 in test [3] (setting [11]); 68.97 in test [3] (setting [12]). In test [3] (setting [13]), the R-index was 90.78. Also, the “Significantly different (p < 0.05)” value is given as “No” in test [1] (setting [7]); “Yes” in test [1] (setting [8]); “Yes” in test [1] (setting [9]); “Yes” in test [3] (setting [10]); “No” in test [3] (setting [11]); “Yes” in test [3] (setting [12]). The “Significantly different (p < 0.05)” value in test [3] (setting [13]) is given as “Yes”. In addition, in test [3] (5 ppm in 7% sucrose cola, iso sweet with 8% instead of expected 7.5% sucrose), the sweetness enhancer behaviour result is “behaving as a sweetness enhancer”.
In the case of `C[C@@H]1Cc2ccccc2N1C(=O)NC1CCCCCC1` [Example 18, (R)-N-cycloheptyl-2-methylindoline-1-carboxamide], in the test on panel of trained experts, the “taste of sample solutions (inherent sweetness)” value was “sweet”; the “effectiveness at creating modifying, or enhancing the sweet flavour of compositions and consumable products” value is given as “particularly effective”.
